27 molecules from patent US11590116B2 (THERAVANCE BIOPHARMA R&D IP, LLC, priority 2019, dated 2023) can be followed below.

The target in experiment [1] is T1, recombinant human ALK5 (TGF-βR1) protein (Homo sapiens, UniProt P36897).
T1 construct: purchased Life Technologies PR9075A
T1 sequence (P36897 34-503): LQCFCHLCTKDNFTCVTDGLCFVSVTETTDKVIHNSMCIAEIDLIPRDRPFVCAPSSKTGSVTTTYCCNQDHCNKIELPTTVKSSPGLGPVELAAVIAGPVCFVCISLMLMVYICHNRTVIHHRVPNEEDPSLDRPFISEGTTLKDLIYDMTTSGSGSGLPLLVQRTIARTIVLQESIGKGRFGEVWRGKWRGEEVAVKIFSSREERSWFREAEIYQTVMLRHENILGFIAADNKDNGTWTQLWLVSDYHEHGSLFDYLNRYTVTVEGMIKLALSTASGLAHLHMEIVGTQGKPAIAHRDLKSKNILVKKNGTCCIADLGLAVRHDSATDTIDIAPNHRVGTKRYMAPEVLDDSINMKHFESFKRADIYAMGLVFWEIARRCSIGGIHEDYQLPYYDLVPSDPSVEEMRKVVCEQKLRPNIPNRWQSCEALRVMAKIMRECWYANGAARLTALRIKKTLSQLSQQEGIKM
Description: Biochemical ALK5 (TGF-βR1) assay to measure pKi (LANCE Ultra ULight kinase assay). The note with it: apparent pKi from pIC50 by Cheng-Prusoff, read-out: ALK5 pKi (converted). The essentials:
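After a 60 min room-temperature preincubation of ALK5 with compound, phosphorylation proceeds 60 min at 37 °C on ATP addition (125 μM as 5× stock). Detection: Eu-labelled phospho-Thr1342 Topo IIα antibody in EDTA buffer, pH 7.0; emission 665 nm.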

In experiment [2] the test system is TGF-β-stimulated SMAD3 phosphorylation in BEAS-2B cells. Description: Cellular ALK5 potency assay, inhibition of TGF-β stimulated pSMAD3 formation in BEAS-2B cells. It is filed as cell-based. The note with it: Homo sapiens; inhibition of TGF-β stimulated pSMAD3 formation, BEAS-2B cells; read-out: BEAS2B pIC50 (converted). The essentials:
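Cells seeded overnight; rinse with supplemented HBSS; compound 1 h at 37 °C; TGF-β 10 ng/mL final, 30 min; lyse; AlphaLISA acceptor and detector beads 2 h apart, read next day. Potency expressed as pIC50.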

As for `Cc1cccc(-c2n[nH]cc2-c2ccc3nccc(Cl)c3n2)n1` [Compound 851, 8-chloro-2-[3-(6-methyl-2-pyridyl)-1H-pyrazol-4-yl]-1,5-naphthyridine], the Ki in experiment [1] is 0.0398 to 0.316 nM. Further, the IC50 in experiment [2] is < 20 nM.

Turning to `Cc1cccc(-c2[nH]cnc2-c2ccc3ncc(-c4ccc(C(=O)O[C@H]5CCNC5)cn4)cc3c2)n1` [Compound 1119, [(3S)-pyrrolidin-3-yl] 6-[6-[5-(6-methyl-2-pyridyl)-1H-imidazol-4-yl]-3-quinolyl]pyridine-3-carboxylate], the Ki in experiment [1] is 0.0398 to 0.316 nM. Moreover, the IC50 in experiment [2] was 25.1 to 158 nM.

Turning to `Cc1cccc(-c2[nH]cnc2-c2ccc3ncc(NCCN4CCCC4)cc3n2)n1` [Compound 573, 6-[5-(6-methyl-2-pyridyl)-1H-imidazol-4-yl]-N-(2-pyrrolidin-1-ylethyl)-1,5-naphthyridin-3-amine], the Ki in experiment [1] is 0.0398 to 0.316 nM. For the same molecule, in experiment [2], the IC50 was 25.1 to 158 nM.

For `Cc1cccc(-c2nc3ccccn3c2-c2ccc3ncc(NCCN4CCN(C(C)C)CC4)cc3c2)n1` [Compound 293, N-(2-(4-isopropylpiperazin-1-yl)ethyl)-6-(2-(6-methylpyridin-2-yl)imidazo[1,2-a]pyridin-3-yl)quinolin-3-amine], the Ki in experiment [1] is 0.0398 to 0.316 nM. For the same molecule, the IC50 in experiment [2] was 25.1 to 158 nM.

For `Cc1cccc(-c2nnn(Cc3ccccc3)c2-c2ccc3ncc(N4CCC(N5CCN(C)CC5)CC4)cc3c2)n1` [Compound 533, 6-[3-benzyl-5-(6-methyl-2-pyridyl)triazol-4-yl]-3-[4-(4-methylpiperazin-1-yl)-1-piperidyl]quinoline], the Ki in experiment [1] is 0.0398 to 0.316 nM. Besides, the IC50 in experiment [2] is 200 to 1260 nM.

With `Cc1cccc(-c2[nH]cnc2-c2ccc3ncc(N4CC[C@H](N)C4)cc3c2)n1` [Compound 208, (3S)-1-[6-[5-(6-methyl-2-pyridyl)-1H-imidazol-4-yl]-3-quinolyl]pyrrolidin-3-amine], the Ki in experiment [1] is 0.0398 to 0.316 nM. For the same molecule, the IC50 in experiment [2] is < 20 nM.

Take `Cc1cccc(-c2n[nH]cc2-c2ccc3ncc(-c4cnn5c4CNCC5)cc3n2)n1` [Compound 308, 2-[3-(6-methyl-2-pyridyl)-1H-pyrazol-4-yl]-7-(4,5,6,7-tetrahydropyrazolo[1,5-a]pyrazin-3-yl)-1,5-naphthyridine]: the Ki in experiment [1] was 0.0398 to 0.316 nM. For the same molecule, the IC50 in experiment [2] is < 20 nM.

`Cc1cccc(-c2n[nH]cc2-c2ccc3ncc(-c4cnn(C5CNC5)c4)cc3n2)n1` [Compound 386, 7-[1-(azetidin-3-yl)pyrazol-4-yl]-2-[3-(6-methyl-2-pyridyl)-1H-pyrazol-4-yl]-1,5-naphthyridine]: the Ki in experiment [1] was < 0.0316 nM. For the same molecule, the IC50 in experiment [2] was 25.1 to 158 nM.

Take `Cc1cccc(-c2[nH]nnc2-c2ccc3ncc(NCCN4CCN(C(C)C)CC4)cc3n2)n1` [Compound 46, N-[2-(4-isopropylpiperazin-1-yl)ethyl]-6-[5-(6-methyl-2-pyridyl)-1H-triazol-4-yl]-1,5-naphthyridin-3-amine]: in experiment [1], the Ki is 0.398 to 3.16 nM. For the same molecule, the IC50 in experiment [2] is 200 to 1260 nM.

Turning to `Cc1cccc(-c2[nH]cnc2-c2ccc3ncc(-c4cc(C(=O)O)cs4)cc3c2)n1` [Compound 1082, 5-[6-[5-(6-methyl-2-pyridyl)-1H-imidazol-4-yl]-3-quinolyl]thiophene-3-carboxylic acid], the Ki in experiment [1] is < 0.0316 nM. Also, in experiment [2], the IC50 is 200 to 1260 nM.

Take `Cc1cccc(-c2[nH]cnc2-c2ccc3ncc(C(=O)O[C@H]4CCNC4)cc3c2)n1` [Compound 757, [(3S)-pyrrolidin-3-yl] 6-[5-(6-methyl-2-pyridyl)-1H-imidazol-4-yl]quinoline-3-carboxylate]: in experiment [1], the Ki is 0.398 to 3.16 nM. The IC50 in experiment [2] was 25.1 to 158 nM.

As for `Cc1cccc(-c2[nH]nnc2-c2ccc3ncc(N4CCC(N5CCN(C)CC5)CC4)cc3c2)n1` [Compound 346, 3-[4-(4-methylpiperazin-1-yl)-1-piperidyl]-6-[5-(6-methyl-2-pyridyl)-1H-triazol-4-yl]quinoline], in experiment [1], the Ki was 0.0398 to 0.316 nM. Besides, the IC50 in experiment [2] is 25.1 to 158 nM.

As for `Cc1cccc(-c2[nH]nnc2-c2ccc3ncc(-c4cn[nH]c4)cc3n2)n1` [Compound 301, 2-[5-(6-methyl-2-pyridyl)-1H-triazol-4-yl]-7-(1H-pyrazol-4-yl)-1,5-naphthyridine], the Ki in experiment [1] is 0.0398 to 0.316 nM. Besides, the IC50 in experiment [2] is 25.1 to 158 nM.

On to `Cc1cccc(-c2[nH]cnc2-c2ccc3ncc(-c4csc(C(=O)OCCNC5CNC5)c4)cc3c2)n1` [Compound 1235, 2-(azetidin-3-ylamino)ethyl 4-[6-[5-(6-methyl-2-pyridyl)-1H-imidazol-4-yl]-3-quinolyl]thiophene-2-carboxylate], for which the Ki in experiment [1] is 0.0398 to 0.316 nM. Also, the IC50 in experiment [2] is 25.1 to 158 nM.

`Cc1nc(-c2nc3ccccn3c2-c2ccc3ncc(N4CCCNCC4)cc3n2)ccc1F` [Compound 84, 7-(1,4-diazepan-1-yl)-2-[2-(5-fluoro-6-methyl-2-pyridyl)imidazo[1,2-a]pyridin-3-yl]-1,5-naphthyridine]: in experiment [1], the Ki is 0.0398 to 0.316 nM. Moreover, in experiment [2], the IC50 was 25.1 to 158 nM.

For `Cc1cccc(-c2[nH]cnc2-c2ccc3ncc(C(=O)OC4CCCCNC4)cc3c2)n1` (stereo not drawn) [Compound 773, azepan-3-yl 6-[5-(6-methyl-2-pyridyl)-1H-imidazol-4-yl]quinoline-3-carboxylate], the Ki in experiment [1] was 0.0398 to 0.316 nM. Further, in experiment [2], the IC50 is 25.1 to 158 nM.

For `Cc1cccc(-c2[nH]cnc2-c2ccc3ncc(-c4ccc(C(=O)OCCN5CC[C@@H](N)C5)cn4)cc3c2)n1` [Compound 1167, 2-[(3R)-3-aminopyrrolidin-1-yl]ethyl 6-[6-[5-(6-methyl-2-pyridyl)-1H-imidazol-4-yl]-3-quinolyl]pyridine-3-carboxylate], the Ki in experiment [1] was 0.0398 to 0.316 nM. In addition, the IC50 in experiment [2] is 25.1 to 158 nM.

Turning to `Cc1cccc(-c2[nH]cnc2-c2ccc3ncc(-c4cncc(C(=O)O[C@H]5CCN(C)C5)c4)cc3c2)n1` [Compound 704, [(3S)-1-methylpyrrolidin-3-yl] 5-[6-[5-(6-methyl-2-pyridyl)-1H-imidazol-4-yl]-3-quinolyl]pyridine-3-carboxylate], the Ki in experiment [1] is 0.0398 to 0.316 nM. Moreover, in experiment [2], the IC50 is 25.1 to 158 nM.

As to `CN[C@H]1CC[C@H](OC(=O)c2cnc3ccc(-c4cn[nH]c4-c4cccc(C)n4)cc3c2)CC1` [Compound 1221, [4-(methylamino)cyclohexyl] 6-[5-(6-methyl-2-pyridyl)-1H-pyrazol-4-yl]quinoline-3-carboxylate], the Ki in experiment [1] is 0.0398 to 0.316 nM. For the same molecule, the IC50 in experiment [2] is < 20 nM.

Regarding `Cc1cccc(-c2[nH]c(O)nc2-c2ccc3ncc(C4=CCC5(CCNCC5)CC4)cc3c2)n1` [Compound 1198, 4-[3-(3-azaspiro[5.5]undec-9-en-9-yl)-6-quinolyl]-5-(6-methyl-2-pyridyl)-1H-imidazol-2-ol], in experiment [1], the Ki was 0.0398 to 0.316 nM. Further, the IC50 in experiment [2] is 200 to 1260 nM.

With `CNCc1ccnc2ccc(-c3c[nH]nc3-c3cccc(C)n3)cc12` [Compound 549, N-methyl-1-[6-[3-(6-methyl-2-pyridyl)-1H-pyrazol-4-yl]-4-quinolyl]methanamine], the Ki in experiment [1] is 0.398 to 3.16 nM. Moreover, the IC50 in experiment [2] is 25.1 to 158 nM.

On to `Cc1cccc(-c2[nH]cnc2-c2ccc3ncc(-c4ccc5c(c4)CC(N)C5)cc3c2)n1` (stereo not drawn) [Compound 163, 5-[6-[5-(6-methyl-2-pyridyl)-1H-imidazol-4-yl]-3-quinolyl]indan-2-amine], for which the Ki in experiment [1] was 0.0398 to 0.316 nM. Further, the IC50 in experiment [2] was < 20 nM.

For the molecule `Cc1cccc(-c2[nH]cnc2-c2ccc3ncc(N4CCC5(CCNCC5)C4)cc3c2)n1` [Compound 160, 2-[6-[5-(6-methyl-2-pyridyl)-1H-imidazol-4-yl]-3-quinolyl]-2,8-diazaspiro[4.5]decane], the Ki in experiment [1] is < 0.0316 nM. Besides, in experiment [2], the IC50 is 25.1 to 158 nM.

As for `Cc1cccc(-c2[nH]ncc2-c2ccc3ncc(C(=O)O[C@@H]4CCCNC4)cc3c2)n1` [Compound 1203, [(3R)-3-piperidyl] 6-[5-(6-methyl-2-pyridyl)-1H-pyrazol-4-yl]quinoline-3-carboxylate], in experiment [1], the Ki is 0.0398 to 0.316 nM. The IC50 in experiment [2] was 25.1 to 158 nM.

`Cc1cccc(-c2n[nH]cc2-c2ccc3ncc(Nc4ccc(N5CCNCC5)cc4)cc3c2)n1` [Compound 488, 6-[3-(6-methyl-2-pyridyl)-1H-pyrazol-4-yl]-N-(4-piperazin-1-ylphenyl)quinolin-3-amine]: the Ki in experiment [1] was 0.0398 to 0.316 nM. Besides, the IC50 in experiment [2] was 25.1 to 158 nM.

Take `Cc1cccc(-c2[nH]cnc2-c2ccc3ncc(C4=CCCC(N)C4)cc3c2)n1` (stereo not drawn) [Compound 531, 3-[6-[5-(6-methyl-2-pyridyl)-1H-imidazol-4-yl]-3-quinolyl]cyclohex-3-en-1-amine]: the Ki in experiment [1] is < 0.0316 nM. For the same molecule, the IC50 in experiment [2] is < 20 nM.

In the case of `CN[C@H]1CC[C@H](OC(=O)c2cnc3ccc(-c4nc[nH]c4-c4cccc(C)n4)cc3c2)CC1` [Compound 1129, [4-(methylamino)cyclohexyl] 6-[5-(6-methyl-2-pyridyl)-1H-imidazol-4-yl]quinoline-3-carboxylate], the Ki in experiment [1] is 0.0398 to 0.316 nM. For the same molecule, the IC50 in experiment [2] was 25.1 to 158 nM.
